In patent US20050014743A1, “Combination of an NMDA receptor antagonist and a selective serotonin reuptake inhibitor for the treatment of depression and other mood disorders” (Forest Laboratories, Inc., priority 2003, published 2005):
“Also recorded” adds a separate entry of the source.

Assays:
[1] = tested on: C57/B1 mice; assay: locomotor activity test (actometers, 6 min); type: in vivo, mouse
[2] = tested on: C57/B1 mice; assay: mouse tail suspension test (TST); type: in vivo; settings: for immobility: given with vehicle; for duration of immobility: monotherapy, doses 5-20 mg/kg IP
[3] = tested on: 5-HT3 receptor; settings: cited from earlier work; for inhibition of 5HT3-mediated current: memantine: native N1E-115 and heterologous HEK-293 cells
[4] = molecular target: T1, NMDA receptor (Rattus norvegicus, UniProt P35439); settings: rat hippocampal slices; cited from earlier work
T1 construct: NMDA receptor-mediated currents (in rat hippocampal slices); from tissue; host or cells: rat hippocampal slices

Row | SMILES | locomotor activity ([1]; mouse, in vivo) | immobility ([2]; 20 mg/kg IP) | duration of immobility [2] | inhibition of 5HT3-mediated current [3] | also measured
1 | CNCCC(Oc1ccc(C(F)(F)F)cc1)c1ccccc1 (stereo not shown) [FLU, fluoxetine] | did not change locomotor activity; also recorded: generally did not affect locomotor activity | decreased immobility | decrease in the duration of immobility | – | –
2 | CN(C)CCCN1c2ccccc2CCc2ccccc21 [IMI, imipramine] | decreased it; also recorded: decreased locomotor activity | decreased immobility | decrease in the duration of immobility | – | locomotor activity ([1]; mouse, in vivo, ip, 20 mg/kg): decreased locomotor activity
3 | CC1(C)CC(C)(C)CC(C)(N)C1 [NER, 1-amino-1,3,3,5,5-pentamethylcyclohexane] | – | – | decreased the duration of immobility | inhibit | locomotor activity ([1]; given with vehicle (combination study), 20 mg/kg IP): increased locomotor activity; locomotor activity ([1]; monotherapy, doses 5-20 mg/kg IP): increased locomotor activity; also recorded: consistent locomotor stimulation; immobility ([2]; 2.5 mg/kg IP, 2.5 mg/kg): increased immobility; also recorded: without effect on immobility time; immobility ([2]; 20 mg/kg IP, 20 mg/kg): decreased immobility
4 | COc1ccc(C(CN(C)C)C2(O)CCCCC2)cc1 (stereo not shown) [VEN, venlafaxine] | – | decreased immobility | decrease in the duration of immobility | – | locomotor activity ([1]; given with vehicle (combination study), 20 mg/kg IP, 20 mg/kg): increased locomotor activity; also recorded: also observed for the dose of 20 mg/kg in one of two studies; locomotor activity ([1]; given with vehicle, 5 mg/kg IP, 5 mg/kg): without effect; locomotor activity ([1]; monotherapy, 40 mg/kg IP, 40 mg/kg): increased it; also recorded: stimulated locomotion; immobility ([2]; 5 mg/kg IP): decreased immobility
5 | CC12CC3CC(C)(C1)CC(N)(C3)C2 [memantine, 1-amino-3,5-dimethyl adamantane] | – | – | – | inhibit | affinity for 5HT3-mediated current relative to NMDA receptor-mediated currents ([3]; N1E-115 / HEK-293 cells vs rat hippocampal slices): approximately equal affinity; inhibition of NMDA receptor-mediated currents [4]: inhibit
